Test results reported in publication PMC3835680, “Inhibition of Nutlin-Resistant HDM2 Mutants by Stapled Peptides” (PLoS ONE, 2013).
“Also recorded” adds a separate entry of the source. FAM = carboxyfluorescein

Experiments:
[1] = molecular target: T1, HDM2 (1-125) M62A (Homo sapiens, UniProt Q00987, M62A); experiment: Fluorescence anisotropy, competitive titration, HDM2 M62A; assay type: binding; conditions: M62A compared to wild-type
T1 construct: using purified HDM2 (1-125) and carboxyfluorescein (FAM) labeled 12-1 peptide; GST (N, cleaved yes); made in house; host or cells: E. coli BL21 DE3
Procedure: (§1) Cells harbouring the GST fusion constructs were grown in LB medium at 37°C to an OD600 of ~0.6 and induction was carried out with 1 mM IPTG at room temperature. Cells were harvested by centrifugation and the cell pellets were resuspended in 50 mM Tris pH 8.0, 10% sucrose and then sonicated. The sample was next centrifuged for 60 mins at 17,000 g at 4°C. The supernatant was applied to a 5 mL FF GST column (Amersham) pre-equilibrated in wash buffer (50 mM Tris-HCl pH 8.0, 150 mM NaCl, 1 mM DTT). The column was then further washed by 6 volumes of wash buffer. HDM2 constructs were then purified from the column by cleavage with Precission protease (GE Lifesciences). 10 units of precission protease, in one column volume of wash buffer, were injected onto the column. The cleavage reaction was allowed to proceed overnight at 4°C. The cleaved protein was then eluted off the column with wash buffer. Protein fractions were analyzed with SDS page gel and concentrated using Centricon (3.5 kDa MWCO) concentrator. […] Protein fractions were analyzed with SDS page gel and concentrated using a Centricon (3.5 kDa MWCO) concentrator, Millipore.
(§2) All titrations were carried out in triplicate. Curve-fitting was carried out using Prism 4.0 (GraphPad).

[2] = molecular target: T2, HDM2 (1-125) Q24R (Homo sapiens, UniProt Q00987, Q24R); experiment: Fluorescence anisotropy, competitive titration, HDM2 Q24R; assay type: binding; conditions: Q24R compared to wild-type
T2 construct: using purified HDM2 (1-125) and carboxyfluorescein (FAM) labeled 12-1 peptide; GST (N, cleaved yes); made in house; host or cells: E. coli BL21 DE3
Procedure: as §1, §2

[3] = molecular target: T3, HDM2 (1-125) P20L (Homo sapiens, UniProt Q00987, P20L); experiment: Fluorescence anisotropy, competitive titration, HDM2 P20L; assay type: binding; conditions: P20L compared to wild-type
T3 construct: using purified HDM2 (1-125) and carboxyfluorescein (FAM) labeled 12-1 peptide; GST (N, cleaved yes); made in house; host or cells: E. coli BL21 DE3
Procedure: as §1, §2

[4] = test system: HDM2-p53 interaction (wild-type HDM2); experiment: In vitro pull-down assay, p53-HDM2 wild-type; assay type: binding; conditions: 10 µM, IVT-expressed proteins
From the text: Single mutant HDM2 clones were generated by Quickchange mutagenesis (Stratagene) of parental HDM2-PET22b using appropriate primers 1-6. The constructs were amplified with primers petF2 and petR to make HDM2 amplicons with T7 promoter and ribosome binding site required for in vitro transcription-translation (IVT) of wild-type or mutant HDM2. Primers 1-6 were used to introduce mutations into the parental pCMV-HDM2 mammalian expression construct by Quickchange mutagenesis. Both the HDM2-PET22b and pCMV-HDM2 constructs additionally encode a C-terminal HA tag. The plasmid p53-PET22b was also amplified with petF2 and petR to make template for IVT of wild-type p53.
Protein G beads (Invitrogen) were incubated with anti-HA (1 µg per 10 µL beads) for 1 hour in PBST-3%BSA and subsequently washed twice in PBST-0.1%BSA. IVT-expressed wild-type or mutant HDM2 was incubated with the beads on a rotator for 30 mins. […] IVT-expressed p53 was added to the mixture and incubation allowed for 1 hour. Beads were finally washed thrice in PBST-0.1%BSA and thrice with PBS, and bound proteins eluted by resuspension in 20 µL SDS-PAGE loading buffer and incubation at 95°C for 5 minutes. […]

[5] = test system: HDM2-p53 interaction (M62A HDM2); experiment: In vitro pull-down assay, p53-HDM2 M62A; assay type: binding; conditions: 10 µM, IVT-expressed proteins
From the text: (§3) Single mutant HDM2 clones were generated by Quickchange mutagenesis (Stratagene) of parental HDM2-PET22b using appropriate primers 1-6. The constructs were amplified with primers petF2 and petR to make HDM2 amplicons with T7 promoter and ribosome binding site required for in vitro transcription-translation (IVT) of wild-type or mutant HDM2. Primers 1-6 were used to introduce mutations into the parental pCMV-HDM2 mammalian expression construct by Quickchange mutagenesis. Both the HDM2-PET22b and pCMV-HDM2 constructs additionally encode a C-terminal HA tag.
(§4) Protein G beads (Invitrogen) were incubated with anti-HA (1 µg per 10 µL beads) for 1 hour in PBST-3%BSA and subsequently washed twice in PBST-0.1%BSA. IVT-expressed wild-type or mutant HDM2 was incubated with the beads on a rotator for 30 mins. […] IVT-expressed p53 was added to the mixture and incubation allowed for 1 hour. Beads were finally washed thrice in PBST-0.1%BSA and thrice with PBS, and bound proteins eluted by resuspension in 20 µL SDS-PAGE loading buffer and incubation at 95°C for 5 minutes. Both the eluates and inputs were subjected to electrophoresis, transferred to nitrocellulose membranes and probed for p53 with horseradish peroxidise conjugated DO1 antibody (Santa Cruz) or for HDM2 with anti-HA antibody followed by rabbit anti-mouse (Dakocytomation).

[6] = test system: HDM2-p53 interaction (Q24R HDM2); experiment: In vitro pull-down assay, p53-HDM2 Q24R; assay type: binding; conditions: 10 µM, IVT-expressed proteins
From the text: as §3, §4

[7] = test system: wild-type HDM2 / p53 transactivation in p53/MDM2-null DKO cells; experiment: p53 reporter assay in p53/MDM2-null DKO cells, wild-type HDM2; assay type: cell-based, mouse; conditions: stapled peptide, 20 µM, mean ± SD (n=2)
Procedure: (§5) Mouse embryonic fibroblast p53/Mdm2 double-knockout (DKO) cells (a kind gift from Guillermina Lozano) [30] and H1299 p53^−/− cells [31] were maintained in Dulbecco's modified Eagle's medium (DMEM) with 10% (v/v) foetal calf serum (FCS) and 1% (v/v) penicillin/streptomycin. The cells were seeded at 1.0 × 10^5 cells/well in 6-well plates, 24 hours prior to transfection. Cells were co-transfected with wild-type or mutant HDM2 plasmid, p53-pcDNA plasmid, LacZ reporter plasmid and luciferase plasmid using TurboFect transfection reagent (Thermo Scientific) according to the manufacturer’s instructions. […] In all cases, the total amount of plasmid DNA transfected per well was equilibrated by addition of the parental vector pcDNA3.1a(+).
(§6) DKO cells were harvested 24hours after transfection and β-galactosidase activities were assessed using the Dual-light System (Applied Biosystems) according to the manufacturer's protocol. The β-galactosidase activity was normalized with luciferase activity for each sample.

[8] = test system: M62A HDM2 / p53 transactivation in p53/MDM2-null DKO cells; experiment: p53 reporter assay in p53/MDM2-null DKO cells, HDM2 M62A; assay type: cell-based, mouse; conditions: stapled peptide, 20 µM, mean ± SD (n=2)
Procedure: as §5, §6

[9] = test system: wild-type and mutant (M62A, Q24R) HDM2; p53-dependent genes in HCT116 p53^+/+ cells; experiment: RT-qPCR of p53-regulated genes in HCT116 p53+/+ cells transfected with HDM2 variants; assay type: cell-based; conditions: Nutlin 10 µM; M62A and Q24R compared to wild-type; 24 h post-transfection; RT-qPCR (n=2)
From the text: In all cases, the total amount of plasmid DNA transfected per well was equilibrated by addition of the parental vector pcDNA3.1a(+).

[10] = test system: p53 (1-81) - HDM2 (7-134) interaction, wild-type, Q24R and M62A, in BHK cells; experiment: Fluorescent 2-Hybrid (F2H) co-localization assay; assay type: cell-based; conditions: 1 hour at 37°C, titration, difference particularly evident at 1-10 µM for Nutlin, n=4
Procedure: Interaction (%) was determined as the ratio of cells showing co-localization of fluorescent signals at the nuclear spot to the total number of evaluated cells. To enable comparison between the experiments, a normalization step was performed. For each independent experiment, the interaction ratios in treated wells were normalized to the interaction ratios in control (untreated) wells:
I % = 100% * Interactions_treated/Interactions_untreated
In this way, the control values in each experiment are taken to be 100%. For automated image acquisition an INCell Analyzer 1000 with a 20X objective (GE Healthcare) was used. Automated image segmentation and analysis was performed with the corresponding INCell Workstation 3.6 software. At least 100 co-transfected cells were analyzed per well. Titrations were carried out independently three to five times.
For the F2H assay, significance (t-test) is denoted relative to the percentage interactions observed for wild-type HDM2 under the indicated treatment conditions. For transcript analysis by real-time PCR, two-way ANOVA with Bonferroni post test was performed using GraphPad Prism software.

[11] = test system: HDM2 Y104G; conditions: mutation in secondary Nutlin binding site; ref [54]; cited from earlier work
From the text: Studies have shown that K51 of HDM2 interacts with E23 and E25 of HDM ...

[12] = test system: HDM2 M62; conditions: ref [19]; cited from earlier work
From the text: Modelling studies show the hydrophobic hydrocarbon chain comprising the staple interacts with HDM2 in the vicinity of M62 (Figure 6). Whilst the M62A mutation impacts negatively on binding of both stapled peptide and p53 compared to wild type HDM2, the presence of additional “fall-back” interactions (apart from M62, see below) results in marginal overall loss of binding by these ligands. […] Mutation to alanine causes marg ...

[13] = molecular target: T4, HDM2 (1-125), wild-type, purified (human, UniProt Q00987 1-125); experiment: fluorescence polarisation; competitive fluorescence anisotropy titrations against FAM-labelled 12-1 peptide with purified HDM2 (1-125); apparent Kds; PBS pH 7.4, 3% DMSO, 0.1% Tween 20
T4 construct: source: E. coli BL21 DE3, purified (GST column, PreScission cleavage, ResourceS)

[14] = molecular target: T5, HDM2 (1-125) M62A, purified (human, UniProt Q00987 1-125, M62A); experiment: as above
T5 construct: also called HDM2-M62A; source: E. coli BL21 DE3, purified (GST column, PreScission cleavage, ResourceS)

[15] = molecular target: T6, HDM2 (1-125) Q24R, purified (human, UniProt Q00987 1-125, Q24R); experiment: as above
T6 construct: source: E. coli BL21 DE3, purified (GST column, PreScission cleavage, ResourceS)

[16] = molecular target: T7, HDM2 (1-125) P20L, purified (human, UniProt Q00987 1-125, P20L); experiment: as above
T7 construct: source: E. coli BL21 DE3, purified (GST column, PreScission cleavage, ResourceS)
T7 sequence (Q00987 1-125 P20L): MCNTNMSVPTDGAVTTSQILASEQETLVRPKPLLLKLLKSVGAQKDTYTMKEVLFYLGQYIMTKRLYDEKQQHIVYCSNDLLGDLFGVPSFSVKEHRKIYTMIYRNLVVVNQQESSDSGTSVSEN

T5 sequence (Q00987 1-125 M62A): as the sequence (Q00987 1-125 P20L) above, with L20P, M62A counted along it
T6 sequence (Q00987 1-125 Q24R): as the sequence (Q00987 1-125 P20L) above, with L20P, Q24R counted along it
T4 sequence (Q00987 1-125): as the sequence (Q00987 1-125 P20L) above, with L20P counted along it
T1 sequence (Q00987 1-125 M62A): as the sequence (Q00987 1-125 P20L) above, with L20P, M62A counted along it
T3 sequence (Q00987 1-125 P20L): as the sequence (Q00987 1-125 P20L) above
T2 sequence (Q00987 1-125 Q24R): as the sequence (Q00987 1-125 P20L) above, with L20P, Q24R counted along it

CC(=O)N[C@H](C(=O)N[C@@H](CO)C(=O)N[C@@H](Cc1ccccc1)C(=O)N[C@]1(C)CCCCCCC=CCCC[C@@](C)(C(N)=O)NC(=O)[C@H](CC(C)C)NC(=O)[C@H](CC(C)C)NC(=O)[C@H](C)NC(=O)[C@H](Cc2c[nH]c3cc(Cl)ccc23)NC(=O)[C@H](Cc2ccc(O)cc2)NC(=O)[C@H](CCC(=O)O)NC1=O)[C@@H](C)O [MO11]
Change of binding affinity versus wild-type HDM2 [1]: very slight perturbation of binding | Change of binding affinity versus wild-type HDM2 [2]: not perturbed | Change of binding affinity versus wild-type HDM2 [3]: not perturbed | Inhibition of p53-HDM2 interaction (pull-down, Western blot) [4]: strong repression of the HDM2-p53 interaction; also recorded: inhibition of p53 binding to both WT and mutant HDM2 | Inhibition of p53-HDM2 interaction (pull-down, Western blot) [5]: able to abrogate the mutant HDM2-p53 interaction as efficiently as Nutlin inhibits the wild-type HDM2-p53 interaction; also recorded: inhibition of p53 binding to both WT and mutant HDM2 | Inhibition of p53-HDM2 interaction (pull-down, Western blot) [6]: able to abrogate the mutant HDM2-p53 interaction as efficiently as Nutlin inhibits the wild-type HDM2-p53 interaction; also recorded: inhibition of p53 binding to both WT and mutant HDM2 | p53 reporter activity restored (percentage of activity with p53-only transfection) [7]: 51% | p53 reporter activity restored (percentage of activity with p53-only transfection) [8]: 47%

COc1ccc(C2=N[C@@H](c3ccc(Cl)cc3)[C@@H](c3ccc(Cl)cc3)N2C(=O)N2CCNC(=O)C2)c(OC(C)C)c1 [Nutlin]
Inhibition of p53-HDM2 interaction (pull-down, Western blot) [4]: strong repression of the HDM2-p53 interaction; also recorded: inhibits p53-HDM2 interaction | p53 activation of p21, gadd45α and 14-3-3σ transcript levels, mutants versus wild-type HDM2 [9]: significant reduction of p53 transcriptional activity was observed for the M62A and Q24R mutants compared to wild-type | Dissociation of p53-HDM2 complex, mutants (Q24R, M62A) versus wild-type (F2H) [10]: reduced dissociation of mutant N-terminal domains from p53, indicating Nutlin resistance; also recorded: increased dissociation of WT-p53 complex compared to Q24R/M62A-p53 complexes | Binding to HDM2 Y104G [11]: recalcitrant to Nutlin binding | Effect of loss of M62 contact on Nutlin binding [12]: major loss of binding

P53 peptide (ligand of Table 1)
Kd [13]: 13.9 nM | Kd [14]: 29.6 nM | Kd [15]: 10.4 nM | Kd [16]: 17.2 nM

B1: carboxyfluorescein (FAM) labeled 12-1 peptide (FAM-RFMDYWEGL-NH2) (peptide)
peptide: {FAM}-RFMDYWEGL-NH2
notes: that it is not a natural p53 stretch is my surmise
binding result ([13]; both partners purified): binds | binding result ([14]; both partners purified): binds | binding result ([15]; both partners purified): binds | binding result ([16]; both partners purified): binds
